Measured values reported in the kinase profiling compilation of Christmann-Franck et al. (2016).

Columns and labels:
Assay in all cases: KINOMEscan competition binding
Conditions in all cases: compound 10.0 µM
STK17B (human) = STK17B (human) (UniProt O94768)
MYLK2 (human) = MYLK2 (human) (UniProt Q9H1R3)
PIP5K1A (human) = PIP5K1A (human) (UniProt Q99755)
MAP2K6 (human) = MAP2K6 (human) (UniProt P52564)
AURKA (human) = AURKA (human) (UniProt O14965)
[1] = target: TYK2 JH2 pseudokinase (human) (UniProt P29597)
[2] = test system: EGFR (human), P00533 [L858R]
WEE2 (human) = WEE2 (human) (UniProt P0C1S8)
CLK2 (human) = CLK2 (human) (UniProt P49760)
DDR2 (human) = DDR2 (human) (UniProt Q16832)
RPS6KA2 KD1 (human) = RPS6KA2 KD1 (human) (UniProt Q15349)
RPS6KA3 KD1 (human) = RPS6KA3 KD1 (human) (UniProt P51812)
RIPK1 (human) = RIPK1 (human) (UniProt Q13546)
CAMK2G (human) = CAMK2G (human) (UniProt Q13555)
CSNK2A1 (human) = CSNK2A1 (human) (UniProt P68400)
RIOK2 (human) = RIOK2 (human) (UniProt Q9BVS4)
EPHA4 (human) = EPHA4 (human) (UniProt P54764)
BRSK1 (human) = BRSK1 (human) (UniProt Q8TDC3)
MST1R (human) = MST1R (human) (UniProt Q04912)
EIF2AK1 (human) = EIF2AK1 (human) (UniProt Q9BQI3)
SRC (human) = SRC (human) (UniProt P12931)
ROCK1 (human) = ROCK1 (human) (UniProt Q13464)
MATK (human) = MATK (human) (UniProt P42679)
MAPK14 (human) = MAPK14 (human) (UniProt Q16539)
EPHB6 (human) = EPHB6 (human) (UniProt O15197)
CDC2L2 (human) = CDC2L2 (human) (UniProt Q9UQ88)
TGFBR2 (human) = TGFBR2 (human) (UniProt P37173)
STK16 (human) = STK16 (human) (UniProt O75716)
CSNK2A2 (human) = CSNK2A2 (human) (UniProt P19784)
MAP2K5 (human) = MAP2K5 (human) (UniProt Q13163)
CIT (human) = CIT (human) (UniProt O14578)
MAPK4 (human) = MAPK4 (human) (UniProt P31152)
BMPR1A (human) = BMPR1A (human) (UniProt P36894)
[3] = target: JAK2 JH1 catalytic (human) (UniProt O60674)
MAK (human) = MAK (human) (UniProt P20794)
GRK4 (human) = GRK4 (human) (UniProt P32298)
HIPK3 (human) = HIPK3 (human) (UniProt Q9H422)
MAP2K7 (human) = MAP2K7 (human) (UniProt O14733)
DYRK1A (human) = DYRK1A (human) (UniProt Q13627)
MAP4K4 (human) = MAP4K4 (human) (UniProt O95819)

Sequence of GRK4 (human) (P32298 whole entry, looked up): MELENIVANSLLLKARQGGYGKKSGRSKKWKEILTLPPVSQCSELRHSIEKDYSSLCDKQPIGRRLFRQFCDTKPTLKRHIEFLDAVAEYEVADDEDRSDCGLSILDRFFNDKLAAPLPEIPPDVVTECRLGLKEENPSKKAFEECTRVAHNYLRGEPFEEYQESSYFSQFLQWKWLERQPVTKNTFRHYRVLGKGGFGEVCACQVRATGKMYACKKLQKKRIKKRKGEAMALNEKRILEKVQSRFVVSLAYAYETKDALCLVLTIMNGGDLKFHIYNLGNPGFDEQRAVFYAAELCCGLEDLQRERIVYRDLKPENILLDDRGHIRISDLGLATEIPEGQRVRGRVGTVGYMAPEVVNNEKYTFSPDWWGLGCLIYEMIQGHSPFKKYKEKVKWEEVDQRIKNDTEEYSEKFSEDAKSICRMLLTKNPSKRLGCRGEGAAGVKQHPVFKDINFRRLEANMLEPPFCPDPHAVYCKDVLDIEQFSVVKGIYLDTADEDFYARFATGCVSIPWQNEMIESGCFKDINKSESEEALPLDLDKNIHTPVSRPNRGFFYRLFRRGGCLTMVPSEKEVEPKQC
Sequence of CSNK2A1 (human) (P68400 whole entry, looked up): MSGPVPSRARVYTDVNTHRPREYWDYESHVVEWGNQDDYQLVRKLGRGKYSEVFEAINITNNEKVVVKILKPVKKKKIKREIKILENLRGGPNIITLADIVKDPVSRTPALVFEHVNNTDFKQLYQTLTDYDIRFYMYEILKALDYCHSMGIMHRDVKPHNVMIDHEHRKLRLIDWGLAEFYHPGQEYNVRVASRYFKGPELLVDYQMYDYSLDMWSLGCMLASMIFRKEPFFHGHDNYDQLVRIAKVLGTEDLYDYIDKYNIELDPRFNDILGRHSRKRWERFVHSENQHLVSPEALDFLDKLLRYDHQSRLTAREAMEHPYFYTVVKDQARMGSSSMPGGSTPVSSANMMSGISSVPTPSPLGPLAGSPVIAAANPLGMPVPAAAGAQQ
Sequence of RPS6KA3 KD1 (human) (P51812 whole entry, looked up): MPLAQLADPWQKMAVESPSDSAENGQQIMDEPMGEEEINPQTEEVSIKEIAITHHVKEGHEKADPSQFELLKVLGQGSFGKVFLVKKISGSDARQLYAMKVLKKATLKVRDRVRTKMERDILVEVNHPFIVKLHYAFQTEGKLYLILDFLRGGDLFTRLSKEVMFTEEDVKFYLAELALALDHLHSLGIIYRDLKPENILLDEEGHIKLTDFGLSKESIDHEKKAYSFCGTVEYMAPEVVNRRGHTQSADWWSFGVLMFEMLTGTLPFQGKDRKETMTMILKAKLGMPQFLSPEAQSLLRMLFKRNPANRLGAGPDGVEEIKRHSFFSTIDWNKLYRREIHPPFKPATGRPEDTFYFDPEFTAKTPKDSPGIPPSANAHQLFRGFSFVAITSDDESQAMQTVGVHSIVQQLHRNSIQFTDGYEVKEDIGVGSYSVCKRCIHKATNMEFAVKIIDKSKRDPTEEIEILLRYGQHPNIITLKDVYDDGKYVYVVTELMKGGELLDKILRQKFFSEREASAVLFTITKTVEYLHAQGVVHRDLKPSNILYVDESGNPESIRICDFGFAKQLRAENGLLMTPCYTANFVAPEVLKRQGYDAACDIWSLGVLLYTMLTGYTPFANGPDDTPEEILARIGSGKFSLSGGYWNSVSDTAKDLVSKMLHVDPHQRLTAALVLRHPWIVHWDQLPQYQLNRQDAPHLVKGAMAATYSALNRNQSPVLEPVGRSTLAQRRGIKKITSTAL
Sequence of CDC2L2 (human) (Q9UQ88 whole entry, looked up): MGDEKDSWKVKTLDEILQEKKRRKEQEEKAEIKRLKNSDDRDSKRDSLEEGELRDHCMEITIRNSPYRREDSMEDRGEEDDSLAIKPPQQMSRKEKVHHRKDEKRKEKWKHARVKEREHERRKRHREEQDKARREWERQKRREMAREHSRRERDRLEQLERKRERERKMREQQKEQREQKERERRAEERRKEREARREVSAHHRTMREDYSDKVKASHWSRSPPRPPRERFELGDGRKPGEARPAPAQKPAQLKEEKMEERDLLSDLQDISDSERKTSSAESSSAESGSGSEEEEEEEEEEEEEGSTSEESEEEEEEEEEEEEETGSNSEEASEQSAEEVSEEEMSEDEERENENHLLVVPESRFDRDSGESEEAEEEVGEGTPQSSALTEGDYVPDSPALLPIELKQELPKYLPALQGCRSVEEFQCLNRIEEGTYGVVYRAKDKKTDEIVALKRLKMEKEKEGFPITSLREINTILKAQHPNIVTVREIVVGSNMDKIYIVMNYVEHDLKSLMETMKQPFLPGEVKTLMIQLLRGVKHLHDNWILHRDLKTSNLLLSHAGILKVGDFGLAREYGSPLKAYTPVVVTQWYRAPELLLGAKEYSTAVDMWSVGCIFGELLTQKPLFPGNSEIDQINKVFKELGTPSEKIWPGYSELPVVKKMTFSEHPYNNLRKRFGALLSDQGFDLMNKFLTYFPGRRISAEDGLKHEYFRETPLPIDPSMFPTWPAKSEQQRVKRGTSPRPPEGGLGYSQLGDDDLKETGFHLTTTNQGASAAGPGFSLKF
Sequence of STK16 (human) (O75716 whole entry, looked up): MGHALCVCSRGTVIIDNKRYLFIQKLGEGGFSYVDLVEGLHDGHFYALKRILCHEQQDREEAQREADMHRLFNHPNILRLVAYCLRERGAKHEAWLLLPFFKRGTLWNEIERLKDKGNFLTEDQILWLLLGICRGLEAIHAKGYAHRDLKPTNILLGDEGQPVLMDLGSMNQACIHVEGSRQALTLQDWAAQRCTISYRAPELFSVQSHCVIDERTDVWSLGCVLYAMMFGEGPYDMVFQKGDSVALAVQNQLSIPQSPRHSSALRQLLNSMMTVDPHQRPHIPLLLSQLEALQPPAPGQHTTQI
Sequence of RIPK1 (human) (Q13546 whole entry, looked up): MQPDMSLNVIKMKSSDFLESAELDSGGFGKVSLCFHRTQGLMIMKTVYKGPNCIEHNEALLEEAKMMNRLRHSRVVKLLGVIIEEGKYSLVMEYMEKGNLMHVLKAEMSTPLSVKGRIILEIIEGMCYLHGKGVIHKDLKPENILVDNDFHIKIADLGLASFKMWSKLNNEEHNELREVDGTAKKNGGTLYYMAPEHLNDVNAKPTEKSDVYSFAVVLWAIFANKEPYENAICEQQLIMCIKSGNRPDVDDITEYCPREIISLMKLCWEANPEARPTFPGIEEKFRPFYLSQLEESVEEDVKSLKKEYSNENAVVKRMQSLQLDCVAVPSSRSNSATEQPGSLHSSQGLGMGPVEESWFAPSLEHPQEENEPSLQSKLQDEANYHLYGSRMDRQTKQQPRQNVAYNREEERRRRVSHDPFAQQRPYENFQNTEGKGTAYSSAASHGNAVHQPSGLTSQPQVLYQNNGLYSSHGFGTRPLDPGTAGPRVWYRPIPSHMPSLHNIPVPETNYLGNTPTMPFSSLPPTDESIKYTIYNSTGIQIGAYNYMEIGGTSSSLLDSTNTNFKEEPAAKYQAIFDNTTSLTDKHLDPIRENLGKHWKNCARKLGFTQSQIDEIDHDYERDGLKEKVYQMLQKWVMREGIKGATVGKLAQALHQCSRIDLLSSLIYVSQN
Sequence of EPHA4 (human) (P54764 whole entry, looked up): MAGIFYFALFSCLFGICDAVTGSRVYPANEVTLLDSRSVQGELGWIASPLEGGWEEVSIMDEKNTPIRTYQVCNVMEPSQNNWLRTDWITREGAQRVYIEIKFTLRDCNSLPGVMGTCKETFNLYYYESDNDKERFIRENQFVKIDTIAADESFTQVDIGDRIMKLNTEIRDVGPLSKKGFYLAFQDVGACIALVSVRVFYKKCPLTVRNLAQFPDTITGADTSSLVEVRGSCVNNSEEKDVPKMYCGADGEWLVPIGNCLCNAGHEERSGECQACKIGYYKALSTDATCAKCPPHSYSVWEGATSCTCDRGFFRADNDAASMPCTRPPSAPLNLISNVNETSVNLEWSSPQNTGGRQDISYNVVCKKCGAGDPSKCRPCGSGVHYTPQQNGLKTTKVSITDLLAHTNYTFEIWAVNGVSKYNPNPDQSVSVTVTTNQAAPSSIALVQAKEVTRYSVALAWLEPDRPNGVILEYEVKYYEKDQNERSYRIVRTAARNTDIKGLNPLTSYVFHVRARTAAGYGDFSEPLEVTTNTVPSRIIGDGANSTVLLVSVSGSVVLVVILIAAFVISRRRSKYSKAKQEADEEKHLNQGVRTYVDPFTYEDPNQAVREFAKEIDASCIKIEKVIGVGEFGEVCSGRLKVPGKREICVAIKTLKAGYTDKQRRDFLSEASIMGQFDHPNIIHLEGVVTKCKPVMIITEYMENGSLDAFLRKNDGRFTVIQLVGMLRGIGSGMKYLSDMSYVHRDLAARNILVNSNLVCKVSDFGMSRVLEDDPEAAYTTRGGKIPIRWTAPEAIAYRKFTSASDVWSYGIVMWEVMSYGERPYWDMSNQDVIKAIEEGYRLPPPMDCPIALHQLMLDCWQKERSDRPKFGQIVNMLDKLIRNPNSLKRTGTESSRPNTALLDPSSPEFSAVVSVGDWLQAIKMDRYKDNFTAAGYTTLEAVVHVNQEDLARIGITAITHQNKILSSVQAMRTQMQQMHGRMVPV
Sequence of BMPR1A (human) (P36894 whole entry, looked up): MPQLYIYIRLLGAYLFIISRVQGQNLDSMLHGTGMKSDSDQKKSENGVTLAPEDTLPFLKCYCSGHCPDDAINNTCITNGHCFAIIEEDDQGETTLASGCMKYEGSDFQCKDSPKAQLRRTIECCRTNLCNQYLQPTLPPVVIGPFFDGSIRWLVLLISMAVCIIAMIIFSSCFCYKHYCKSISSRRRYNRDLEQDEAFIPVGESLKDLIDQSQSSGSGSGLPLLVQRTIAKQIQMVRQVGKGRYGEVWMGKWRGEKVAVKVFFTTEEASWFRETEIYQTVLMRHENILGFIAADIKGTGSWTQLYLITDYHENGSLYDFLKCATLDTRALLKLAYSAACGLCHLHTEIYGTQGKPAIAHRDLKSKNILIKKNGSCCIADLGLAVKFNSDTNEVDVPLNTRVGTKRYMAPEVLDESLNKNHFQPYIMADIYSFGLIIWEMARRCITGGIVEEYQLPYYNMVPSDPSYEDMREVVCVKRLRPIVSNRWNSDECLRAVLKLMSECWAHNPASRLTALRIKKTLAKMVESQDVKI

Structure (SMILES): COc1cc2ncnc(Nc3cccc(Cl)c3)c2cc1OC
- kinase still bound, per cent of control (STK17B (human)): 40%
- kinase still bound, per cent of control (MYLK2 (human)): 40%
- kinase still bound, per cent of control (PIP5K1A (human)): 93%
- kinase still bound, per cent of control (MAP2K6 (human)): 95%
- kinase still bound, per cent of control (AURKA (human)): 43%
- kinase still bound, per cent of control [1]: 55%
- kinase still bound, per cent of control [2]: 0.05%
- kinase still bound, per cent of control (WEE2 (human)): 81%
- kinase still bound, per cent of control (CLK2 (human)): 53%
- kinase still bound, per cent of control (DDR2 (human)): 42%
- kinase still bound, per cent of control (RPS6KA2 KD1 (human)): 85%
- kinase still bound, per cent of control (RPS6KA3 KD1 (human)): 67%
- kinase still bound, per cent of control (RIPK1 (human)): 100%
- kinase still bound, per cent of control (CAMK2G (human)): 77%
- kinase still bound, per cent of control (CSNK2A1 (human)): 19%
- kinase still bound, per cent of control (RIOK2 (human)): 43%
- kinase still bound, per cent of control (EPHA4 (human)): 72%
- kinase still bound, per cent of control (BRSK1 (human)): 37%
- kinase still bound, per cent of control (MST1R (human)): 100%
- kinase still bound, per cent of control (EIF2AK1 (human)): 65%
- kinase still bound, per cent of control (SRC (human)): 9.9%
- kinase still bound, per cent of control (ROCK1 (human)): 41%
- kinase still bound, per cent of control (MATK (human)): 48%
- kinase still bound, per cent of control (MAPK14 (human)): 63%
- kinase still bound, per cent of control (EPHB6 (human)): 16%
- kinase still bound, per cent of control (CDC2L2 (human)): 77%
- kinase still bound, per cent of control (TGFBR2 (human)): 91%
- kinase still bound, per cent of control (STK16 (human)): 97%
- kinase still bound, per cent of control (CSNK2A2 (human)): 16%
- kinase still bound, per cent of control (MAP2K5 (human)): 3.5%
- kinase still bound, per cent of control (CIT (human)): 7.4%
- kinase still bound, per cent of control (MAPK4 (human)): 16%
- kinase still bound, per cent of control (BMPR1A (human)): 55%
- kinase still bound, per cent of control [3]: 46%
- kinase still bound, per cent of control (MAK (human)): 100%
- kinase still bound, per cent of control (GRK4 (human)): 100%
- kinase still bound, per cent of control (HIPK3 (human)): 54%
- kinase still bound, per cent of control (MAP2K7 (human)): 73%
- kinase still bound, per cent of control (DYRK1A (human)): 40%

Structure (SMILES): CCc1nc(-c2cccc(C)c2)c(-c2ccnc(NC(=O)c3ccccc3)c2)s1
- kinase still bound, per cent of control (STK17B (human)): 91%
- kinase still bound, per cent of control (MYLK2 (human)): 96%
- kinase still bound, per cent of control (PIP5K1A (human)): 100%
- kinase still bound, per cent of control (MAP2K6 (human)): 79%
- kinase still bound, per cent of control (AURKA (human)): 90%
- kinase still bound, per cent of control [1]: 57%
- kinase still bound, per cent of control (WEE2 (human)): 100%
- kinase still bound, per cent of control (CLK2 (human)): 61%
- kinase still bound, per cent of control (DDR2 (human)): 16%
- kinase still bound, per cent of control (RPS6KA2 KD1 (human)): 100%
- kinase still bound, per cent of control (RPS6KA3 KD1 (human)): 93%
- kinase still bound, per cent of control (RIPK1 (human)): 95%
- kinase still bound, per cent of control (CAMK2G (human)): 100%
- kinase still bound, per cent of control (CSNK2A1 (human)): 100%
- kinase still bound, per cent of control (RIOK2 (human)): 92%
- kinase still bound, per cent of control (EPHA4 (human)): 94%
- kinase still bound, per cent of control (BRSK1 (human)): 93%
- kinase still bound, per cent of control (MST1R (human)): 88%
- kinase still bound, per cent of control (EIF2AK1 (human)): 100%
- kinase still bound, per cent of control (SRC (human)): 14%
- kinase still bound, per cent of control (ROCK1 (human)): 97%
- kinase still bound, per cent of control (MATK (human)): 100%
- kinase still bound, per cent of control (EPHB6 (human)): 16%
- kinase still bound, per cent of control (CDC2L2 (human)): 90%
- kinase still bound, per cent of control (TGFBR2 (human)): 82%
- kinase still bound, per cent of control (STK16 (human)): 74%
- kinase still bound, per cent of control (CSNK2A2 (human)): 86%
- kinase still bound, per cent of control (MAP2K5 (human)): 5.2%
- kinase still bound, per cent of control (CIT (human)): 0.45%
- kinase still bound, per cent of control (MAPK4 (human)): 90%
- kinase still bound, per cent of control (BMPR1A (human)): 14%
- kinase still bound, per cent of control [3]: 100%
- kinase still bound, per cent of control (MAK (human)): 70%
- kinase still bound, per cent of control (GRK4 (human)): 100%
- kinase still bound, per cent of control (HIPK3 (human)): 100%
- kinase still bound, per cent of control (MAP2K7 (human)): 100%
- kinase still bound, per cent of control (DYRK1A (human)): 69%

Structure (SMILES): CCOc1cc(N2CCC(O)CC2)ccc1Nc1ncc2c(n1)N(C)c1ccccc1C(=O)N2C
- kinase still bound, per cent of control (STK17B (human)): 100%
- kinase still bound, per cent of control (MYLK2 (human)): 100%
- kinase still bound, per cent of control (PIP5K1A (human)): 100%
- kinase still bound, per cent of control (MAP2K6 (human)): 100%
- kinase still bound, per cent of control (AURKA (human)): 100%
- kinase still bound, per cent of control [1]: 100%
- kinase still bound, per cent of control [2]: 100%
- kinase still bound, per cent of control (WEE2 (human)): 100%
- kinase still bound, per cent of control (CLK2 (human)): 100%
- kinase still bound, per cent of control (DDR2 (human)): 100%
- kinase still bound, per cent of control (RPS6KA2 KD1 (human)): 100%
- kinase still bound, per cent of control (RPS6KA3 KD1 (human)): 100%
- kinase still bound, per cent of control (RIPK1 (human)): 100%
- kinase still bound, per cent of control (CAMK2G (human)): 100%
- kinase still bound, per cent of control (CSNK2A1 (human)): 100%
- kinase still bound, per cent of control (RIOK2 (human)): 100%
- kinase still bound, per cent of control (EPHA4 (human)): 100%
- kinase still bound, per cent of control (BRSK1 (human)): 100%
- kinase still bound, per cent of control (MST1R (human)): 100%
- kinase still bound, per cent of control (MAP4K4 (human)): 100%
- kinase still bound, per cent of control (SRC (human)): 100%
- kinase still bound, per cent of control (ROCK1 (human)): 100%
- kinase still bound, per cent of control (MATK (human)): 100%
- kinase still bound, per cent of control (MAPK14 (human)): 100%
- kinase still bound, per cent of control (EPHB6 (human)): 100%
- kinase still bound, per cent of control (CDC2L2 (human)): 100%
- kinase still bound, per cent of control (TGFBR2 (human)): 100%
- kinase still bound, per cent of control (STK16 (human)): 100%
- kinase still bound, per cent of control (CSNK2A2 (human)): 100%
- kinase still bound, per cent of control (CIT (human)): 100%
- kinase still bound, per cent of control (MAPK4 (human)): 100%
- kinase still bound, per cent of control (BMPR1A (human)): 100%
- kinase still bound, per cent of control [3]: 100%
- kinase still bound, per cent of control (MAK (human)): 100%
- kinase still bound, per cent of control (GRK4 (human)): 100%
- kinase still bound, per cent of control (HIPK3 (human)): 100%
- kinase still bound, per cent of control (DYRK1A (human)): 100%

Structure (SMILES): COc1cc2c(Nc3ccc(NC(=O)c4ccccc4)cc3)ncnc2cc1OCCCN1CCOCC1
- kinase still bound, per cent of control (STK17B (human)): 100%
- kinase still bound, per cent of control (MYLK2 (human)): 100%
- kinase still bound, per cent of control (PIP5K1A (human)): 100%
- kinase still bound, per cent of control (MAP2K6 (human)): 86%
- kinase still bound, per cent of control (AURKA (human)): 8.6%
- kinase still bound, per cent of control [1]: 83%
- kinase still bound, per cent of control [2]: 8.8%
- kinase still bound, per cent of control (WEE2 (human)): 100%
- kinase still bound, per cent of control (CLK2 (human)): 80%
- kinase still bound, per cent of control (DDR2 (human)): 100%
- kinase still bound, per cent of control (RPS6KA2 KD1 (human)): 84%
- kinase still bound, per cent of control (RIPK1 (human)): 100%
- kinase still bound, per cent of control (CAMK2G (human)): 100%
- kinase still bound, per cent of control (CSNK2A1 (human)): 87%
- kinase still bound, per cent of control (RIOK2 (human)): 100%
- kinase still bound, per cent of control (EPHA4 (human)): 98%
- kinase still bound, per cent of control (BRSK1 (human)): 79%
- kinase still bound, per cent of control (MST1R (human)): 3.9%
- kinase still bound, per cent of control (EIF2AK1 (human)): 20%
- kinase still bound, per cent of control (SRC (human)): 32%
- kinase still bound, per cent of control (ROCK1 (human)): 98%
- kinase still bound, per cent of control (MATK (human)): 100%
- kinase still bound, per cent of control (MAPK14 (human)): 100%
- kinase still bound, per cent of control (EPHB6 (human)): 2%
- kinase still bound, per cent of control (CDC2L2 (human)): 6.9%
- kinase still bound, per cent of control (TGFBR2 (human)): 82%
- kinase still bound, per cent of control (STK16 (human)): 100%
- kinase still bound, per cent of control (CSNK2A2 (human)): 100%
- kinase still bound, per cent of control (MAP2K5 (human)): 0.3%
- kinase still bound, per cent of control (CIT (human)): 59%
- kinase still bound, per cent of control (MAPK4 (human)): 100%
- kinase still bound, per cent of control (BMPR1A (human)): 37%
- kinase still bound, per cent of control [3]: 72%
- kinase still bound, per cent of control (MAK (human)): 59%
- kinase still bound, per cent of control (GRK4 (human)): 100%
- kinase still bound, per cent of control (HIPK3 (human)): 52%
- kinase still bound, per cent of control (MAP2K7 (human)): 100%
- kinase still bound, per cent of control (DYRK1A (human)): 58%
